Reference: a compilation of properties of binary mixtures (doi:10.1016/j.jct.2020.106232)

Assay: xn = mol fraction of the nth substance listed
Settings: 100 kPa

CCCCCO + CCCC[n+]1ccn(C)c1.O=[N+]([O-])[O-]
x2 = 0
Settings	viscosity [mPa·s]
293.15 K	4.03
303.15 K	3.04
313.15 K	2.33
323.15 K	1.81

CCCC[n+]1ccn(C)c1.O=[N+]([O-])[O-] + CCCCCO
viscosity [mPa·s]
Settings	293.15 K	303.15 K	313.15 K	323.15 K
x1 = 0.0824	5.32	3.84	2.94	–
x1 = 0.1538	6.83	4.88	3.59	2.69
x1 = 0.2318	8.87	6.36	4.68	3.38
x1 = 0.3425	13.1	9.46	6.76	4.63
x1 = 0.4363	–	13.2	9.14	6.19
x1 = 0.5668	–	21	14	9.37
x1 = 0.6481	40.3	28.1	–	12.31
x1 = 0.7481	–	41	27	17.3
x1 = 0.8416	94.9	59.8	–	24.3
x1 = 0.9415	160	94	–	–
x1 = 1	224	125	75.1	45.2
